Data taken from ChEMBL document CHEMBL5356982, “Truncated derivatives of amphidinol 3 reveal the functional role of polyol chain in sterol-recognition and pore formation” (Bioorg Med Chem Lett, 2024).
pEC50, pKd: −log10 of the molar value. Activity calls are given as the source filed them. No cut-off for these calls is given here.

Legend:
[1] = tested on: Aspergillus niger; assay: Antifungal activity against Aspergillus niger NBRC 31012 assessed as inhibition zone incubated for 2 days by disk diffusion method; type: functional; conditions: time 2 day
[2] = molecular target: Lipid bilayer; assay: Binding affinity to 10% Ergosterol containing DOPC liposomes assessed as dissociation constant at equilibrium at 50 uM and measured from 300 to 600 sec by SPR method
[3] = tested on: Lipid bilayer; assay: Binding affinity to DOPC liposomes at 50 uM and measured upto 600 sec by SPR method
[4] = tested on: Lipid bilayer; assay: Induction of pore formation in 10% Ergosterol containing DOPC liposomes assessed as calcein dye leakage by measuring calcein fluorescence at 10 uM by fluorescence microplate reader analysis
[5] = molecular target: Lipid bilayer; assay: Binding affinity to 10% Ergosterol containing DOPC liposomes assessed as dissociation constant for second step at 50 uM and measured from 300 to 600 sec by SPR method
[6] = tested on: Lipid bilayer; assay: Induction of pore formation in 10% Ergosterol containing DOPC liposomes assessed as calcein dye leakage by measuring calcein fluorescence at 27 uM by fluorescence microplate reader analysis
[7] = molecular target: Lipid bilayer; assay: Binding affinity to 10% Ergosterol containing DOPC liposomes assessed as dissociation constant for first step at 50 uM and measured from 300 to 600 sec by SPR method
[8] = molecular target: Lipid bilayer; assay: Binding affinity to DOPC liposomes assessed as dissociation constant at equilibrium at 50 uM and measured from 300 to 600 sec by SPR method
[9] = tested on: Lipid bilayer; assay: Induction of pore formation in 10% Ergosterol containing DOPC liposomes assessed as calcein dye leakage by measuring calcein fluorescence by fluorescence microplate reader analysis
[10] = molecular target: Lipid bilayer; assay: Binding affinity to DOPC liposomes assessed as dissociation constant for second step at 50 uM and measured from 300 to 600 sec by SPR method
[11] = molecular target: Lipid bilayer; assay: Binding affinity to DOPC liposomes assessed as dissociation constant for first step at 50 uM and measured from 300 to 600 sec by SPR method
[12] = tested on: Lipid bilayer; assay: Induction of pore formation in DOPC liposomes assessed as calcein dye leakage by measuring calcein fluorescence at 27 uM by fluorescence microplate reader analysis
[13] = tested on: Lipid bilayer; assay: Binding affinity to 10% Ergosterol containing DOPC liposomes at 50 uM and measured upto 600 sec by SPR method

Row | Compound | MIC [1] | pKd [2] | Activity [3] | Activity [4] | step-2 equilibrium ratio [5] | Activity [6] | pKd [7] | pKd [8] | pEC50 [9] | pKd [5] | pKd [10] | pKd [11] | Activity [12] | Activity [13]
1 | C=C/C=C/CC/C=C/C=C/C=C/CC/C=C/[C@H](O)[C@H](O)[C@@H]1O[C@@H]([C@H](O)[C@H](O)C(=C)CC[C@@H](O)[C@@H]2C[C@H](O)[C@H](O)[C@@H]([C@H](O)[C@@H](O)/C=C(\C)CC[C@H](O)C[C@H](O)[C@H](O)[C@@H](C)CCO)O2)C[C@@H](O)[C@H]1O | 20 µg | 6.00 | inactive | Active | 0.044 | inactive | 4.60 | – | – | – | – | – | – | –
2 | C=C/C=C/CC/C=C/C=C/C=C/CC/C=C/[C@H](O)[C@H](O)[C@@H]1O[C@@H]([C@H](O)[C@H](O)C(=C)CC[C@@H](O)[C@@H]2C[C@H](O)[C@H](O)[C@@H]([C@H](O)[C@@H](O)/C=C(\C)CC[C@H](O)C[C@H](O)[C@H](O)[C@@H](C)C[C@H](O)[C@@H](O)CCCCC[C@@H](O)CCC[C@@H](O)/C=C/C[C@@H](O)/C=C/C[C@@H](O)CO)O2)C[C@@H](O)[C@H]1O | 8 µg | 9.92 | – | – | – | – | 4.29 | 5.16 | 5.53 | 5.62 | 2.20 | 3.01 | Active | –
3 | C=C/C=C/CC/C=C/C=C/C=C/CC/C=C/[C@H](O)[C@H](O)[C@@H]1O[C@@H]([C@H](O)[C@H](O)C(=C)CC[C@@H](O)[C@@H]2C[C@H](O)[C@H](O)[C@@H]([C@H](O)[C@@H](O)CO)O2)C[C@@H](O)[C@H]1O | >300 µg | – | inactive | – | – | inactive | – | – | – | – | – | – | – | inactive
